pEC50, pIC50: −log10 of the molar value.
Tests used:
[1] = system: genotype 1b-Con1 subgenomic replicon cell line; assay: HCV Polymerase Replicon Assay (genotype 1b-Con1, luciferase reporter); assay type: cell-based; settings: Hepatitis C virus, 72 h, 1b-Con1 replicon, three days
[2] = target: T1, HCV polymerase 1B (Δ21 NS5B) (Hepatitis C virus genotype 1b, UniProt P26663); assay: HCV Polymerase Inhibition Assay (1b); assay type: biochemical
T1 construct: 20 to 50 nM Δ21 NS5B
Protocol: (§1) Reaction volume was 50 μL. The reaction was terminated by the addition of 1 volume of 4 mM spermine in 10 mM Tris-Cl pH 8.0, 1 mM EDTA. After incubation for at least 15 minutes at room temperature, the precipitated RNA was captured by filtering through a GF/B filter (Millipore) in a 96 well format. The filter plate was washed three times with 200 μL, each of 2 mM spermine, 10 mM Tris-Cl pH 8.0, 1 mM EDTA, and 2 times with ethanol. After air-drying, 30 μL, of Microscint 20 scintillation cocktail (Packard) was added to each well, and the retained cpm were determined by scintillation counting. […] Retained cpm were plotted vs. inhibitor concentration and fit to equation 1 using non-linear regression (ref. 1) to obtain the IC50 values: Retained cpm=A[sqrt{(IC50+It−Et)^2+4*IC50*Et}−(IC50+It−Et)]
(§2) Ref. Morrison, J. F. and S. R. Stone. 1985. Approaches to the study and analysis of the inhibition of enzymes by slow- and tight-binding inhibitors. Comments Mol. Cell. Biophys. 2: 347-368.
(§3) The sequence of the template RNA used was: 5′-[…] […] […] […] […] […] […] […] […] […] […] […] […] […] […] […] […]-3′ (SEQ ID NO: 1)

[3] = system: genotype 1a-H77 subgenomic replicon cell line; assay: HCV Polymerase Replicon Assay (genotype 1a-H77, luciferase reporter); assay type: cell-based; settings: Hepatitis C virus, 72 h, 1a-H77 replicon, three days
[4] = target: T2, HCV polymerase 1A (Δ21 NS5B) (Hepatitis C virus genotype 1a, UniProt P27958); assay: HCV Polymerase Inhibition Assay (1a); assay type: biochemical
T2 construct: 20 to 50 nM Δ21 NS5B
Protocol: as §1, §2, §3

T2 sequence (P27958 2421-2990, stated change not applied): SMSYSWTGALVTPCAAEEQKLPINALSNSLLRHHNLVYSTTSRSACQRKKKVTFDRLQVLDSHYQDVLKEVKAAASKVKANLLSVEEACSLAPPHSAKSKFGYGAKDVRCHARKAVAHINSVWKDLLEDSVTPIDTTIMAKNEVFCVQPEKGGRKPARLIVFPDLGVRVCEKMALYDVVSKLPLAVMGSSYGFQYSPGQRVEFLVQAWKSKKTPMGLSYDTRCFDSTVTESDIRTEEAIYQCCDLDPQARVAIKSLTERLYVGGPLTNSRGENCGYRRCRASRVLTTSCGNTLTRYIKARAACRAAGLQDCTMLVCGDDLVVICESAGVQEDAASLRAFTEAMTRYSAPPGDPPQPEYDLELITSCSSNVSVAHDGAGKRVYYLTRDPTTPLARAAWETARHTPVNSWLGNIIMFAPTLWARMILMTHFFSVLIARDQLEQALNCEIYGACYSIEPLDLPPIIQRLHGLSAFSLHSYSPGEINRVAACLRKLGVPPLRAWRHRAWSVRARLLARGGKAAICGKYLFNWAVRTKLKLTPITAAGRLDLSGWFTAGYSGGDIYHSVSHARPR
T1 sequence (P26663 2420-2989, stated change not applied): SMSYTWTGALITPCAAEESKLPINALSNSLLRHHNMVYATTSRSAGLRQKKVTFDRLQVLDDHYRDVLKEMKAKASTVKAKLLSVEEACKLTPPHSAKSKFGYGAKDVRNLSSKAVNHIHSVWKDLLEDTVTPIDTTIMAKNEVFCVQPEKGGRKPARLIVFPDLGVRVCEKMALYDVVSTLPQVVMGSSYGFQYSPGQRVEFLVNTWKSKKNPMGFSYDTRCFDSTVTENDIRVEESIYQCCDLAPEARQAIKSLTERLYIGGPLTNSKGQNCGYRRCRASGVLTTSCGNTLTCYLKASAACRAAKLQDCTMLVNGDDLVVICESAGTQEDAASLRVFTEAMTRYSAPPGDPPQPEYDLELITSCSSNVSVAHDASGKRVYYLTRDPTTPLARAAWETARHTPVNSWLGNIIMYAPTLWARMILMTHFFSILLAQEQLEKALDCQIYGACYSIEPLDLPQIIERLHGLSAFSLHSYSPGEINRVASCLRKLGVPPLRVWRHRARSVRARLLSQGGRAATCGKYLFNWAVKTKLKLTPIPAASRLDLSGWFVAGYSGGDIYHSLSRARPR

SMILES | pEC50 [1] | pIC50 [2] | pEC50 [3] | pIC50 [4]
COc1c(-c2ccc3cc(NS(C)(=O)=O)ccc3c2)cc(-c2c[nH]c(=O)[nH]c2=O)cc1-c1cccs1 [compound 39, N-(6-(5-(2,4-dioxo-1,2,3,4-tetrahydropyrimidin-5-yl)-2-methoxy-3-(thiophen-2-yl)phenyl)naphthalen-2-yl)methanesulfonamide] | ≥ 8.00 | > 8.00 | 7.00 to 8.00 | > 8.00
CCc1c(-c2ccc3cc(NS(C)(=O)=O)ccc3c2)cc(-c2c[nH]c(=O)[nH]c2=O)cc1C(C)(C)C [compound 36, N-(6-(3-tert-butyl-5-(2,4-dioxo-1,2,3,4-tetrahydropyrimidin-5-yl)-2-ethylphenyl)naphthalen-2-yl)methanesulfonamide] | 6.00 to 7.00 | 7.00 to 8.00 | 6.00 to 7.00 | 7.00 to 8.00
COc1c(-c2ccc3cc(NS(C)(=O)=O)ccc3c2)cc(-n2ccccc2=O)cc1C(C)(C)C [compound 30, N-(6-(3-tert-butyl-2-methoxy-5-(2-oxopyridin-1(2H)-yl)phenyl)naphthalen-2-yl)methanesulfonamide] | 7.00 to 8.00 | 7.00 to 8.00 | 6.00 to 7.00 | 7.00 to 8.00
